“And” between values parts separate entries of the source, which are not always exact repeats. Identical values can stand only once. Like-named read-outs stand apart in the source and are kept apart here.
Experiments:
rat primary hepatocytes = test: Primary hepatocyte viability (CellTiter-Blue), rat; assay type: cell-based; details: for %Viability: Rat primary hepatocytes
Method: (§1) Safety studies were performed by commercial services using their standard protocols. […] Genotoxicity was investigated using the Ames test (Bacterial Reverse Mutation Assay) (Covance Laboratories Ltd, North Yorkshire, England). In vitro mammalian cell micronucleus screening assay was studied in human peripheral blood lymphocytes (BioReliance Corporation, Rockville, USA). Cardiotoxicity was determined against the hERG channel in an automated patch clamp assay using the Qpatch or against the hNaV 1.5, hKV 1.5 and hCaV 1.2 using a manual patch-clamp technique (Metrion Biosciences, Cambridge, UK). Cytotoxicity in human and rat primary hepatocytes was assessed using the CellTiter-Blue assay performed by commercial services (KaLy-Cell). The viability of HepG2 cells was monitored through the addition of 1 mM resazurin. Following 6 h incubation, the relative amount of reduced resazurin was detected in a fluorimeter and compared to the assay controls (vehicle: 0.1% DMSO and positive control: 10 µM puromycin).

[1] = system: cryopreserved human hepatocytes; test: MTT cytotoxicity in induction-study hepatocytes; assay type: cell-based; details: up to 500 µM, 72 h, one donor
[2] = system: P. falciparum NF54 male gametocytes; test: Dual gamete formation assay, male; assay type: cell-based, Plasmodium falciparum
Method: After a 48-h incubation, gamete formation was stimulated by a drop in temperature (from 37 °C to 26 °C), and the addition of xanthurenic acid (2.5 µM). At 20 min after induction, exflagellation was recorded by automated time-lapse microscopy. After data collection, the plate was returned to a 26 °C incubator and incubated for 24 h. Female gamete formation was assessed by live staining with a Cy3-labelled anti-Pfs25 monoclonal antibody (1:2222) and recorded by automated microscopy.

[3] = molecular target: T1, panel of human receptors and channels (Homo sapiens, UniProt P24530); assay type: binding; details: ETB (h) (agonist radioligand); Rep1, Rep2, Mean
T1 construct: purchased Eurofins CEREP

[4] = molecular target: T2, panel of human receptors and channels (Homo sapiens, UniProt P23975); assay type: binding; details: norepinephrine transporter (h) (antagonist radioligand); Rep1, Rep2, Mean
T2 construct: purchased Eurofins CEREP

[5] = molecular target: T3, panel of human receptors and channels (Homo sapiens, UniProt P06401); assay type: binding; details: PR (h) (agonist radioligand); Rep1, Rep2, Mean
T3 construct: purchased Eurofins CEREP

[6] = molecular target: T4, panel of human receptors and channels (Homo sapiens, UniProt Q01959); assay type: binding; details: dopamine transporter (h) (antagonist radioligand); Rep1, Rep2, Mean
T4 construct: purchased Eurofins CEREP

[7] = molecular target: T5, panel of human receptors and channels (Homo sapiens, UniProt P37231); assay type: binding; details: PPARγ (h) (agonist radioligand); Rep1, Rep2, Mean
T5 construct: purchased Eurofins CEREP

[8] = molecular target: T6, panel of human receptors and channels (Homo sapiens, UniProt P08588); assay type: binding; details: β1 (h) (agonist radioligand); Rep1, Rep2, Mean
T6 construct: purchased Eurofins CEREP

[9] = molecular target: T7, panel of human receptors and channels (Homo sapiens, UniProt P0DMS8); assay type: binding; details: A3 (h) (agonist radioligand); Rep1, Rep2, Mean
T7 construct: purchased Eurofins CEREP

[10] = molecular target: T8, panel of human receptors and channels (Homo sapiens, UniProt P25021); assay type: binding; details: H2 (h) (antagonist radioligand); Rep1, Rep2, Mean
T8 construct: purchased Eurofins CEREP

[11] = system: panel of human receptors and channels; assay type: binding; details: for % Inhibition of Control Specific Binding: Rep1, Rep2, Mean
[12] = molecular target: T9, panel of human receptors and channels (Homo sapiens, UniProt P25101); assay type: binding; details: ETA (h) (agonist radioligand); Rep1, Rep2, Mean
T9 construct: purchased Eurofins CEREP

[13] = molecular target: T10, panel of human receptors and channels (Homo sapiens, UniProt P30411); assay type: binding; details: B2 (h) (agonist radioligand); Rep1, Rep2, Mean
T10 construct: purchased Eurofins CEREP

[14] = molecular target: T11, panel of human receptors and channels (Homo sapiens, UniProt P35367); assay type: binding; details: H1 (h) (antagonist radioligand); Rep1, Rep2, Mean
T11 construct: purchased Eurofins CEREP

[15] = molecular target: T12, panel of human receptors and channels (Homo sapiens, UniProt P34981); assay type: binding; details: TRH1 (h) (agonist radioligand); Rep1, Rep2, Mean
T12 construct: purchased Eurofins CEREP

[16] = molecular target: T13, panel of human receptors and channels (Homo sapiens, UniProt P30542); assay type: binding; details: A1 (h) (antagonist radioligand); Rep1, Rep2, Mean
T13 construct: purchased Eurofins CEREP

[17] = molecular target: T14, panel of human receptors and channels (Homo sapiens, UniProt Q9GZV3); assay type: binding; details: choline transporter (CHT1) (h) (antagonist radioligand); Rep1, Rep2, Mean
T14 construct: purchased Eurofins CEREP

[18] = system: human primary hepatocytes; test: Primary hepatocyte viability (CellTiter-Blue), human; assay type: cell-based; details: for %Viability: Human primary hepatocytes
Method: as §1

[19] = Human hepatocyte clearance (relay assay); details: human, hepatocytes
Description: Briefly, cryopreserved human primary hepatocytes were thawed and cultured as described above.

T9 sequence (P25101 21-427): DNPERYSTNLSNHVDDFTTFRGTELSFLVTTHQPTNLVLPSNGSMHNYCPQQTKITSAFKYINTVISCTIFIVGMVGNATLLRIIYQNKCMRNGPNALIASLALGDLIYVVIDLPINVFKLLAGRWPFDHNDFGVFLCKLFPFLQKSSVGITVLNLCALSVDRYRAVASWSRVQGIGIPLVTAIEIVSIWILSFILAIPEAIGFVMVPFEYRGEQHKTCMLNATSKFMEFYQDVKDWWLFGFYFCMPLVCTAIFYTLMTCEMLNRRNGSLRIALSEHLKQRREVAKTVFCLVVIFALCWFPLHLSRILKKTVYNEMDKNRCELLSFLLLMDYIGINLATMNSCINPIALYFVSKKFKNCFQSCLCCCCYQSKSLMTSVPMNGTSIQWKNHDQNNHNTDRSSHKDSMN
T14 sequence (Q9GZV3 whole entry): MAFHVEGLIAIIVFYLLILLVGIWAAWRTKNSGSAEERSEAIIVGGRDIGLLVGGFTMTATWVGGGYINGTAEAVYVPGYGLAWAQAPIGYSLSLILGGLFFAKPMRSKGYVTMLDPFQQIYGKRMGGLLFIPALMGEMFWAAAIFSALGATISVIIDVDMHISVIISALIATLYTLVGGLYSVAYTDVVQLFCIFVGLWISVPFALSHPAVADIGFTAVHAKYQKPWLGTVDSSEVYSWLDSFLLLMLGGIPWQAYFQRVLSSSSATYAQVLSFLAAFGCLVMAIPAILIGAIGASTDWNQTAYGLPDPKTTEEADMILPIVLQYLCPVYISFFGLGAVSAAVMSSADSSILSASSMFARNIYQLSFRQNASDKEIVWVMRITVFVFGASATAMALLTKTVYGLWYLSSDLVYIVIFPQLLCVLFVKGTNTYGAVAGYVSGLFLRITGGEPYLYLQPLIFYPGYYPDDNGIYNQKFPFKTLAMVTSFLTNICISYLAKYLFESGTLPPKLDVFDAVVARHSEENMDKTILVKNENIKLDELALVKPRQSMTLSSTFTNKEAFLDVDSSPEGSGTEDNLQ
T12 sequence (P34981 whole entry): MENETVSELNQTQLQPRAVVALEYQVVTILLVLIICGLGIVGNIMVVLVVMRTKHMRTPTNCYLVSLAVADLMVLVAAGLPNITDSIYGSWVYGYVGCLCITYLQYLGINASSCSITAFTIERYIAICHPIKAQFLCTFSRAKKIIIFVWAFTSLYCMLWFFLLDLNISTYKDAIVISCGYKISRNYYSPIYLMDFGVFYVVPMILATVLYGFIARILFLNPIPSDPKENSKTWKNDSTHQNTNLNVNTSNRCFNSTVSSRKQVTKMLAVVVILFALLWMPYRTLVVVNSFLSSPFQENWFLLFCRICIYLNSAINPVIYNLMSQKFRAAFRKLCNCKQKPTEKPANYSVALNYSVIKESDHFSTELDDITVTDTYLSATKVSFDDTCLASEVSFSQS
T5 sequence (P37231 whole entry): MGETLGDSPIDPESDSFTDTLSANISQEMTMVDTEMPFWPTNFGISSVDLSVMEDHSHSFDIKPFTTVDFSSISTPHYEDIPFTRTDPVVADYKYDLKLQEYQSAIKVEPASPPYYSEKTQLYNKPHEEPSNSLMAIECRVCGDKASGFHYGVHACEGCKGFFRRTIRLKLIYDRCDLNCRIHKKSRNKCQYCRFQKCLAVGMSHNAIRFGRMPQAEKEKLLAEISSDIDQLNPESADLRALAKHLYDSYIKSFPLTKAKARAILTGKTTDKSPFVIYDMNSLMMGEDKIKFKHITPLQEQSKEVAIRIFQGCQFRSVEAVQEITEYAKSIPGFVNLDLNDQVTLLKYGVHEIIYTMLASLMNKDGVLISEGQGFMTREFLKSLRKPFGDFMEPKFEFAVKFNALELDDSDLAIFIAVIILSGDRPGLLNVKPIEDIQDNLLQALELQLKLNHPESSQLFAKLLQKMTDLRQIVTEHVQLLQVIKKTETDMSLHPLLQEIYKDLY
T3 sequence (P06401 whole entry): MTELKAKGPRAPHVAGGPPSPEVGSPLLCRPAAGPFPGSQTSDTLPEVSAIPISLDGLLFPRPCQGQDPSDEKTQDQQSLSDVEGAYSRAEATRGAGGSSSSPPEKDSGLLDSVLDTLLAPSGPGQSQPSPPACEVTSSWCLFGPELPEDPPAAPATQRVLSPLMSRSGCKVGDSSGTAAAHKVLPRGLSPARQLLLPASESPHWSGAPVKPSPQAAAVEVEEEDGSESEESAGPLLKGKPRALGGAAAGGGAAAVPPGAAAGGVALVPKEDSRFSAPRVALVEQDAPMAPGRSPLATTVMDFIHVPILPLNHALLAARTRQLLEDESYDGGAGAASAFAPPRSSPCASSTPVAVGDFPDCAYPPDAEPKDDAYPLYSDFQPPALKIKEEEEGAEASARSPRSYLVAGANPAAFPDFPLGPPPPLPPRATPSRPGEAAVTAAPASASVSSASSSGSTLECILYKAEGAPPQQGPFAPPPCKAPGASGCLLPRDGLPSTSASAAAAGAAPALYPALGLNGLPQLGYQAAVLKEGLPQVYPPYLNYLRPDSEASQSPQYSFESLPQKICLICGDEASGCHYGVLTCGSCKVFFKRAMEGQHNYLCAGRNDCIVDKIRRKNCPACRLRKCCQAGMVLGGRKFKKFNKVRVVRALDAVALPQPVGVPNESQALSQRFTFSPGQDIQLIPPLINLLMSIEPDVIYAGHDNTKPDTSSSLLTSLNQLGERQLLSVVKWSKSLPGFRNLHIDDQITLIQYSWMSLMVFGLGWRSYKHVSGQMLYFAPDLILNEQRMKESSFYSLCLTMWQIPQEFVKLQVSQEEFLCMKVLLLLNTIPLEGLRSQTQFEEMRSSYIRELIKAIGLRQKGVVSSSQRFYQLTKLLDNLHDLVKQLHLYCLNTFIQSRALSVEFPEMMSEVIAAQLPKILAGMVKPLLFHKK
T4 sequence (Q01959 whole entry): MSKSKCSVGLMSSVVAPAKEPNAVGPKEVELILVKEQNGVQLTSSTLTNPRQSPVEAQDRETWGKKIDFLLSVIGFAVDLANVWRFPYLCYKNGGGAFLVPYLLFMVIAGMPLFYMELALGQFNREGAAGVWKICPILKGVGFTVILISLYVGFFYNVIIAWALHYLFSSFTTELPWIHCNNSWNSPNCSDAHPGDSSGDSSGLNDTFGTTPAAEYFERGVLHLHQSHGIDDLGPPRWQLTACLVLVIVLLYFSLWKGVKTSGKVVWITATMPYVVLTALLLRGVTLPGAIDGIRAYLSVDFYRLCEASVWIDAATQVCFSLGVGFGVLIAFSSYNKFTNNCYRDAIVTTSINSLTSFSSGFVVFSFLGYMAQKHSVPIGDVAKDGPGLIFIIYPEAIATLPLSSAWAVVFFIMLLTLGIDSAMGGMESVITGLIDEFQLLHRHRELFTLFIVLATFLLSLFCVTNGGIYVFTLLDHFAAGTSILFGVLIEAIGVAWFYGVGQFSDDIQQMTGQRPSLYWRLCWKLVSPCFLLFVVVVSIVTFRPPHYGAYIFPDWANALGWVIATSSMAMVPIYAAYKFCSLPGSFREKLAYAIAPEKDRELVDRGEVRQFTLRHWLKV
T7 sequence (P0DMS8 whole entry): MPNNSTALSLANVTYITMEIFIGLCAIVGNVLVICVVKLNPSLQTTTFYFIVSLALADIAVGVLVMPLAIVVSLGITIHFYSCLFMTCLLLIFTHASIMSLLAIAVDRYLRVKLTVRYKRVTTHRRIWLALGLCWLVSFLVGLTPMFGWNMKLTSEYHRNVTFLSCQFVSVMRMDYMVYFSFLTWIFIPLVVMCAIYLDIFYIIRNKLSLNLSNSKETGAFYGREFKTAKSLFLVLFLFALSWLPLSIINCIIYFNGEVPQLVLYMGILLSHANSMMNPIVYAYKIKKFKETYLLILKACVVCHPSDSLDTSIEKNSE
T2 sequence (P23975 whole entry): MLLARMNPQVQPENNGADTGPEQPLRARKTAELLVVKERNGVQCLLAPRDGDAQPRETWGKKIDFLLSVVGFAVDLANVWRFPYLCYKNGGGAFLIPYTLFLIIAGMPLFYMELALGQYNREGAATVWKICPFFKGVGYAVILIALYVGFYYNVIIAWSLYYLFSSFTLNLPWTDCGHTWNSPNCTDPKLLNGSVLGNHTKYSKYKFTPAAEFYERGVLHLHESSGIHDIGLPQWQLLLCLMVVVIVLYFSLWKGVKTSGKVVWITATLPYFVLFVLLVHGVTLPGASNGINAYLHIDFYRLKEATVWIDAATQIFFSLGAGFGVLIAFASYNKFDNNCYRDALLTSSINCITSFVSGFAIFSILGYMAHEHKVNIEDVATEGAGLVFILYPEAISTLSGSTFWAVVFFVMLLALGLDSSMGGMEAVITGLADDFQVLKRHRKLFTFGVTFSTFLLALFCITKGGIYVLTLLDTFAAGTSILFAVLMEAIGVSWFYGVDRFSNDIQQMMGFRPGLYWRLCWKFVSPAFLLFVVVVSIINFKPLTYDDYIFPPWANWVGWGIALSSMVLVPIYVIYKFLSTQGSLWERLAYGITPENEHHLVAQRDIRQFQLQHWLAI
T11 sequence (P35367 whole entry): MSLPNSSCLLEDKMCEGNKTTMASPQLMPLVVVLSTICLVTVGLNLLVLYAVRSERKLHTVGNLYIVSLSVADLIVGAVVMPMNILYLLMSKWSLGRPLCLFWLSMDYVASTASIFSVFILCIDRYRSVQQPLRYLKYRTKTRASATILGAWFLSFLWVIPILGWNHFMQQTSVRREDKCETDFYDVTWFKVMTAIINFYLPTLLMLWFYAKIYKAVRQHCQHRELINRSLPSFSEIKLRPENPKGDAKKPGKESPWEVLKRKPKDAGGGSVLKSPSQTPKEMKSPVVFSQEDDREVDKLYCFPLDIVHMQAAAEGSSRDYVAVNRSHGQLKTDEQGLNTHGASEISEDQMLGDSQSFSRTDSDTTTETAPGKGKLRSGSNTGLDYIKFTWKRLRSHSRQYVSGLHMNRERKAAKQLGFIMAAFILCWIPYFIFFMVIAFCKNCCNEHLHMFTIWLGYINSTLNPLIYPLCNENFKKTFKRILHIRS

C[C@@H](CNC(=O)[C@H](O)C(C)(C)CO)NC(=O)c1cc(F)c(F)cc1F [MMV693183]
%Viability (rat primary hepatocytes; Batch R14I19, 0.1 µM): 103% | %Viability (rat primary hepatocytes; Batch R14I19, 0.5 µM): 105% | %Viability (rat primary hepatocytes; Batch R14I19, 1 µM): 101% | %Viability (rat primary hepatocytes; Batch R14I19, 5 µM): 101% | %Viability (rat primary hepatocytes; Batch R14I19, 10 µM): 101% | %Viability (rat primary hepatocytes; Batch R17G25, 0.1 µM): 111% | %Viability (rat primary hepatocytes; Batch R17G25, 0.5 µM): 109% | %Viability (rat primary hepatocytes; Batch R17G25, 1 µM): 111% | %Viability (rat primary hepatocytes; Batch R17G25, 5 µM): 106% | %Viability (rat primary hepatocytes; Batch R17G25, 10 µM): 106% | IC50 (rat primary hepatocytes; primary rat hepatocytes): > 10 µM | cell viability (MTT) [1]: no change in cell viability | IC50 [2]: 1 µM | % Inhibition of Control Specific Binding [3]: -8.6% | % Inhibition of Control Specific Binding [4]: -1.3% and -5.4% and -3.35% | % Inhibition of Control Specific Binding [5]: -7.9% and -12.3% and -10.1% | % Inhibition of Control Specific Binding [6]: -10.1% and -0.3% and -5.2% | % Inhibition of Control Specific Binding [7]: -8.7% and -7.1% and -7.9% | % Inhibition of Control Specific Binding [8]: 13.7% and 4.9% and 9.3% | % Inhibition of Control Specific Binding [9]: -6.2% and -3.3% and -4.75% | % Inhibition of Control Specific Binding [10]: -9.2% and -5.1% and -7.15% | induction, GABA (non-selective) ([11]; 10 µM): 25.2% | inhibition in cross-reactivity panel of human receptors, enzymes, or channels ([11]; 10 µM): < 50% | inhibition/induction, all other binding assays ([11]; 10 µM): less than 25% | % Inhibition of Control Specific Binding ([11]; AMPA (agonist radioligand)): -3.3% and 6.3% and 1.5% | % Inhibition of Control Specific Binding ([11]; BZD (central) (agonist radioligand)): -6% and -2.2% and -4.1% | % Inhibition of Control Specific Binding ([11]; Ca2+ channel (L, dihydropyridine site) (antagonist radioligand)): -8.8% and -2.1% and -5.45% | % Inhibition of Control Specific Binding ([11]; Ca2+ channel (L, diltiazem site) (benzothiazepines) (antagonist radioligand)): -0.7% and -8.5% and -4.6% | % Inhibition of Control Specific Binding ([11]; Ca2+ channel (L, verapamil site) (phenylalkylamine) (antagonist radioligand)): -8.2% and -3.1% and -5.65% | % Inhibition of Control Specific Binding ([11]; Cl- channel (GABA-gated) (antagonist radioligand)): 3.7% and 11.5% and 7.6% | % Inhibition of Control Specific Binding ([11]; D2S (h) (antagonist radioligand)): 8.5% and 10.6% and 9.55% | % Inhibition of Control Specific Binding ([11]; GABA transporter (antagonist radioligand)): -5.4% and -8% and -6.7% | % Inhibition of Control Specific Binding ([11]; IP (PGI2) (h) (agonist radioligand)): 1.7% and -1% and 0.35% | % Inhibition of Control Specific Binding ([11]; KV channel (antagonist radioligand)): 1.3% and -0.6% and 0.35% | % Inhibition of Control Specific Binding ([11]; MT1 (ML1A) (h) (agonist radioligand)): -0.2% and 6.2% and 3% | % Inhibition of Control Specific Binding ([11]; NMDA (antagonist radioligand)): -6% and -8.3% and -7.15% | % Inhibition of Control Specific Binding ([11]; Na+ channel (site 2) (antagonist radioligand)): 17.2% and 13.3% and 15.25% | % Inhibition of Control Specific Binding ([11]; P2Y (agonist radioligand)): -7.4% and -3% and -5.2% | % Inhibition of Control Specific Binding ([11]; SKCa channel (antagonist radioligand)): -1.2% and 2.1% and 0.45% | % Inhibition of Control Specific Binding ([11]; Y (non-selective) (agonist radioligand)): -24.9% and -15.9% and -20.4% | % Inhibition of Control Specific Binding ([11]; kainate (agonist radioligand)): -0.8% and 7.7% and 3.45% | % Inhibition of Control Specific Binding ([11]; opioid (non-selective) (antagonist radioligand)): 4.1% and 0.3% and 2.2% | % Inhibition of Control Specific Binding ([11]; α1 (non-selective) (antagonist radioligand)): 2.6% and 11.7% and 7.15% | % Inhibition of Control Specific Binding ([11]; α2 (non-selective) (antagonist radioligand)): -11.5% and -12.5% and -12% | % Inhibition of Control Specific Binding [12]: -8.1% and -6.5% and -7.3% | % Inhibition of Control Specific Binding [13]: 0.2% and 8.4% and 4.3% | % Inhibition of Control Specific Binding [14]: 6.2% and 8% and 7.1% | % Inhibition of Control Specific Binding [15]: -6.1% and -7.7% and -6.9% | % Inhibition of Control Specific Binding [16]: -9.6% and -3.5% and -6.55% | % Inhibition of Control Specific Binding [17]: 2.6% and 4.5% and 3.55% | %Viability ([18]; Lot R1323T, 0.1 µM): 98% | %Viability ([18]; Lot R1323T, 0.5 µM): 92% | %Viability ([18]; Lot R1323T, 1 µM): 88% | %Viability ([18]; Lot R1323T, 5 µM): 92% | %Viability ([18]; Lot R1323T, 10 µM): 99% | %Viability ([18]; Lot S1552T, 0.1 µM): 98% | %Viability ([18]; Lot S1552T, 0.5 µM): 98% | %Viability ([18]; Lot S1552T, 1 µM): 102% | %Viability ([18]; Lot S1552T, 5 µM): 97% | %Viability ([18]; Lot S1552T, 10 µM): 104% | IC50 ([18]; primary human hepatocytes): > 10 µM

C[C@@H](CNC(=O)[C@H](O)C(C)(C)CO)NC(=O)c1cc(C#N)ccc1F [MMV693182]
hepatocyte CLint [19]: 0.2 µL/min/1e6 cells
